# Laboratory results from ChEMBL document CHEMBL1201862, “PubChem BioAssay data set” (2004).
# Active and inactive are the calls of the source. Rule as the data show it, for most assays here: actives have a measured EC50 and inactives only a lower limit.
# Experiments:
# [1] = inhibitors of intracellular T. cruzi replication, confirmation, NIH3T3 host cells, beta-gal luminescence (AID 2044); assay type: functional, cell-based;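 also: intracellular parasites grown in NIH/3T3 mouse fibroblasts as host cells; luminescent beta-galactosidase reporter signal from transgenic T. cruzi replicating inside host cells; inhibitors lower the luminescence signal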
# [2] = cytotoxicity toward NIH3T3 fibroblasts, dose response, counter-screen, cell-based, ATP luminescence, mouse fibroblasts (AID 2010); assay type: functional;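 also: cells exposed to compound for about 90 hours before reading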
# [3] = Luminescence Cell-Based Dose Confirmation HTS to Identify Activators of 5'UTR Stem-Loop Driven Alpha-Synuclein mRNA Translation in H4 Neuroglioblastoma Cells. [Related pubchem assays: 1829 (Project Summary), 1814 (Primary HTS)]; assay type: functional
# [4] = Luminescence Cell-Based Dose Response HTS to Identify Activators of Luciferase Translation or Activity in H4 […] Cells. [Related pubchem assays: 1829 (Project Summary), 1814 (Primary HTS)]; assay type: functional
# H4 = test: Luminescence Cell-Based Dose Response HTS to Identify Activators of 5'UTR Stem-Loop Driven Prion Protein mRNA Translation in H4 Neuroglioblastoma Cells. [Related pubchem assays: 1829 (Project Summary), 1814 (Primary HTS)]; assay type: functional; settings: Homo sapiens
# [5] = biological target: T1, Heat shock factor protein 1 (Mus musculus, UniProt P38532); test: inhibition of MG132-induced HSE-luciferase signal, confirmation, cell-based, NIH3T3, luminescence, dose retest (AID 2382); assay type: functional;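 also: NIH3T3 fibroblasts with HSF1-driven luciferase reporter stressed by proteasome inhibitor MG132; luminescence from HSF1-driven luciferase expression after 8 hours of MG132 stress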
# T1 sequence (P38532 whole entry): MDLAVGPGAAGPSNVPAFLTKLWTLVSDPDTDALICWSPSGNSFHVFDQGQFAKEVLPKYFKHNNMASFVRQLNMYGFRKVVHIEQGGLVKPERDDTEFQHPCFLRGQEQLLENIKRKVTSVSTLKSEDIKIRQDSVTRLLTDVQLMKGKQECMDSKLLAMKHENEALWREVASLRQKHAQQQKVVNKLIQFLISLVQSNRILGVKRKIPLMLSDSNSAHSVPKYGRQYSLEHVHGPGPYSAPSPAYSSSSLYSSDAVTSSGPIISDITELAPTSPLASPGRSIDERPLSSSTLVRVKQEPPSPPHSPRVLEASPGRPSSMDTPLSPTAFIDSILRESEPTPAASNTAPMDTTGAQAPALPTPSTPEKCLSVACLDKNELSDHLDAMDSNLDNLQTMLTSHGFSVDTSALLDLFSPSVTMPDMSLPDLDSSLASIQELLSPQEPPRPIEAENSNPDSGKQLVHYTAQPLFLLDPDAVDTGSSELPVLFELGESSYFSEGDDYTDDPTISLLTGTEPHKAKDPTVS
# Cytochrome P450 1A2 = biological target: T2, Cytochrome P450 1A2 (Homo sapiens, UniProt P05177);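 also: PubChem cytochrome P450 panel assay, CYP1A2 panel member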
# T2 sequence (P05177 whole entry): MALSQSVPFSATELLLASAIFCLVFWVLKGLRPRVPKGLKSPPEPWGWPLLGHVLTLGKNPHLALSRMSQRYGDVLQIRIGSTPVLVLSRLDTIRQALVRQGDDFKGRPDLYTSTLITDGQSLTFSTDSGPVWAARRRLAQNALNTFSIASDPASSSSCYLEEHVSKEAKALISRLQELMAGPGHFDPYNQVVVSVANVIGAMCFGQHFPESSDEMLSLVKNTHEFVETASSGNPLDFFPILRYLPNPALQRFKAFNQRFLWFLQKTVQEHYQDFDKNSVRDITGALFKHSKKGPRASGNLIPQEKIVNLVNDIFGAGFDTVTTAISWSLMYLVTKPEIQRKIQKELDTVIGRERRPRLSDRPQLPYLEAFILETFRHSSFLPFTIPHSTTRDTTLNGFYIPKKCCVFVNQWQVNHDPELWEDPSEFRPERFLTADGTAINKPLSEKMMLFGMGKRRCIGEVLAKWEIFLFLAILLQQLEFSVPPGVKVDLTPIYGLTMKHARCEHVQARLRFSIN
structure (smiles),measurement,setting,value
CCN(CC)CCN1C(=O)Cn2c(C)c(C)c3cccc1c32,EC50,[1],0.206 µM (active)
same,EC50,[2],> 60 µM (not active)
O=C(/C=C/c1ccccc1)NCCC1=CCCCC1,EC50,[3],0.378 µM (active)
same,EC50,[4],2.93 µM (active)
same,EC50,H4,13.1 µM (active)
Cc1ccc(C(=O)NCc2ccc(N3CCN(C)CC3)cc2)cc1C,EC50,[5],> 195 µM (not active)
Fc1ccc(COc2ccc(Br)cc2CNCc2ccncc2)cc1,EC50,[1],0.78 µM (active)
same,EC50,[2],> 30 µM (not active)
CC(=O)NCC1=C(NC(C)=O)C2CC1C(C)(C)C2C (stereo unspecified),EC50,[5],> 195 µM (not active)
CCCS(=O)(=O)c1nc(S(=O)(=O)c2ccc(C)cc2)c(N2CCN(CCO)CC2)s1,EC50,[3],18.7 µM (active)
same,EC50,[4],8.79 µM (active)
same,EC50,H4,> 120 µM (not active)
O=C(CN1CCN(C2CCCCC2)CC1)NCCC1=CCCCC1,AC50,Cytochrome P450 1A2,20 µM (inconclusive)
CC(NC(=O)c1ccccc1)c1nc2ccccc2n1Cc1ccccc1F (stereo unspecified),AC50,Cytochrome P450 1A2,28.2 µM (inconclusive)
O=C(c1ccc(Cl)cc1)N1CCCC(c2ccccc2)=N1,AC50,Cytochrome P450 1A2,0.141 µM (inconclusive)
O=C(CSc1cccc2cccnc12)N1CCCC1,EC50,[1],0.299 µM (active)
same,EC50,[2],8.3 µM (active)
COc1ccc(Cc2nnc(NC(=O)c3ccco3)s2)cc1,AC50,Cytochrome P450 1A2,11.2 µM (inconclusive)
CNC(=S)N/N=C/c1c(Cl)cccc1Cl,EC50,[5],> 195 µM (not active)
COC(=O)C1=C(N)N(c2ccccc2C(F)(F)F)C2=C(C(=O)CCC2)C1c1ccc2c(c1)OCO2 (stereo unspecified),EC50,[1],1.24 µM (active)
same,EC50,[2],> 60 µM (not active)
same,AC50,Cytochrome P450 1A2,31.6 µM (inconclusive)
Cc1ccccc1NC(=O)N1C2CCCC1CC(NC(=O)C1CC1)C2 (stereo unspecified),EC50,[5],> 195 µM (not active)
COCCCNC(=O)Cn1cnc2sc(C)c(S(=O)(=O)N3CCN(c4ccccc4OC)CC3)c2c1=O,EC50,[5],> 195 µM (not active)
CCCCN(C)C(=O)CCC(=O)Nc1ccc2nc(N3CCN(C)CC3)cc(C)c2c1,EC50,[5],> 195 µM (not active)
O=C(CCC1CCCNC1)c1ccccc1 (stereo unspecified),EC50,[5],> 195 µM (not active)
CC(C)(C)C1CCc2[nH]c3ccccc3c(=O)c2C1 (stereo unspecified),EC50,[1],1.1 µM (active)
same,EC50,[2],> 60 µM (not active)
O=C(N/N=C\c1ccc2c(c1)OCO2)c1ccc(Cn2cc(Br)c([N+](=O)[O-])n2)o1,EC50,[1],0.408 µM (active)
same,EC50,[2],> 60 µM (not active)
c1ccc(CN2CCN(c3cnc4ccccc4n3)CC2)cc1,EC50,[3],4.79 µM (active)
same,EC50,[4],26.8 µM (active)
same,EC50,H4,10.9 µM (active)
CCc1cc(/C=N/C2CCCCC2)c(O)s1,EC50,[3],67.7 µM (active)
same,EC50,[4],> 120 µM (not active)
same,EC50,H4,> 120 µM (not active)
same,EC50,[5],> 195 µM (not active)
C/C(CC1CC(COCC(C)C)OC1=O)=N\Nc1nc(-c2ccccc2)cs1 (stereo unspecified),EC50,[3],> 120 µM (not active)
same,EC50,[4],> 120 µM (not active)
same,EC50,H4,71.2 µM (active)
Cc1cc(N2CCN(C)CC2)nc2ccc(NC(=O)c3cccnc3Cl)cc12,EC50,[5],> 195 µM (not active)
CC(C)(C)CC(=O)NCCc1csc(-c2ccccc2)n1,EC50,[1],1.1 µM (active)
same,EC50,[2],> 60 µM (not active)
Cc1cc(C)[n+]2n1C([O-])=C(c1ccccc1)C2=O,EC50,[4],29.1 µM (active)
same,EC50,H4,13.1 µM (active)
O=C(/C=C/c1ccc2c(c1)OCO2)Nc1nncs1,EC50,[4],0.1 µM (active)
same,EC50,H4,18.6 µM (active)
O=C(O)C(=O)Nc1ccc(NC(=O)C(c2ccccc2)c2ccccc2)cc1,EC50,[5],> 195 µM (not active)
Cc1[nH]c2ccccc2c1C(=O)CSc1nc2cc(S(=O)(=O)N3CCCCC3)ccc2o1,EC50,[1],2.54 µM (active)
same,EC50,[2],18.2 µM (active)
C[C@@H](C(=O)Nc1ccc2ccccc2c1)[C@@H]1C[C@@]1(C)[C@@H](NS(=O)(=O)c1ccc(-c2ccccc2)cc1)c1ccccc1,AC50,Cytochrome P450 1A2,12.6 µM (inconclusive)
COc1ccc(-c2ccc(-c3nnn(CC(=O)N4CCOCC4)n3)cc2)cc1,EC50,[3],4.15 µM (active)
same,EC50,[4],4.67 µM (active)
same,EC50,H4,2.65 µM (active)
CC(C)C(=O)Nc1cccc(-c2nc3ncccc3o2)c1,EC50,[5],> 195 µM (not active)
NC(=O)C1(N2CCCCC2)CCN(C2CC(=O)NC2=O)CC1 (stereo unspecified),EC50,[3],> 120 µM (not active)
same,EC50,[4],> 120 µM (not active)
same,EC50,H4,> 120 µM (not active)
COC(=O)c1ccc(OCc2cc(=O)n3ccsc3n2)cc1,EC50,[3],21.2 µM (active)
same,EC50,[4],> 120 µM (not active)
O=C(COc1ccc(Cl)cc1Cl)NC(=O)N1CCCCC1,EC50,[3],6.03 µM (active)
same,EC50,[4],30.6 µM (active)
same,EC50,H4,92.5 µM (active)
COc1ccc(-c2cn3c(C)c(C(=O)NCCN4CCOCC4)sc3n2)cc1,AC50,Cytochrome P450 1A2,0.126 µM (inconclusive)
O=S(=O)(NC(=NC(=S)Nc1ccccc1)c1ccccc1)c1ccc(Cl)cc1,EC50,[3],41.4 µM (active)
same,EC50,[4],59.7 µM (active)
same,EC50,H4,63.2 µM (active)
O=C(CCCNC(=O)/C(=C\c1ccccc1F)NC(=O)c1ccccc1)OCc1ccccc1,EC50,[5],> 195 µM (not active)
O=C(Nc1ccccc1)[C@@H]1[C@@H]2C(=O)N(c3ccc(F)cc3)C(=O)[C@@H]2[C@H]2C=CC=NN21,EC50,[3],> 120 µM (not active)
same,EC50,[4],> 60 µM (not active)
same,EC50,H4,> 120 µM (not active)
CCOc1ccc(CN2CCN(Cc3cccn3-c3cccnc3)CC2CCO)cc1 (stereo unspecified),EC50,[1],1.89 µM (active)
same,EC50,[2],> 60 µM (not active)
Fc1ccc(-c2csc(/C=C/c3ccc4c(c3)OCO4)n2)cc1,EC50,[3],9.2 µM (active)
same,EC50,[4],9.07 µM (active)
same,EC50,H4,46.8 µM (active)
COc1ccccc1C(=O)NCC(=O)N/N=C/c1ccc2c(c1)OCO2,EC50,[5],> 195 µM (not active)
CCOc1ccc(N/C(=C(/C(=O)C(=O)N2CCOCC2)C(=O)c2ccccc2)c2ccccc2)cc1,EC50,[3],13.3 µM (active)
same,EC50,[4],20.3 µM (active)
same,EC50,H4,57.8 µM (active)
COC(=O)[C@@]1(Cc2ccc(OC)cc2)[C@H]2c3cc(C(=O)N4CCCC4)n(CCc4c[nH]c5cc(F)ccc45)c3C[C@H]2CN1C(=O)c1ccccc1,AC50,Cytochrome P450 1A2,39.8 µM (inconclusive)
CCOC(=O)CN1CC23C=CC(O2)C(C(=O)NC2CCCCC2)C3C1=O (stereo unspecified),EC50,[5],> 195 µM (not active)
COc1ccc(CCN(Cc2cccs2)S(=O)(=O)c2ccc(S(=O)(=O)N(C)C3CCCCC3)cc2)cc1OC,EC50,[1],0.878 µM (active)
same,EC50,[2],> 60 µM (not active)
O=C(Nc1ccc([N+](=O)[O-])cc1)C1(c2ccccc2)CCOCC1,EC50,[5],> 195 µM (not active)
CC(C)Cc1nnc(NC(=O)c2cccc(S(=O)(=O)N3CCN(C)CC3)c2)s1,EC50,[1],0.1 µM (active)
same,EC50,[2],> 60 µM (not active)
Cc1cc(C)c(-c2nc3ccccc3s2)[nH]1,EC50,[3],0.207 µM (active)
same,EC50,[4],1.61 µM (active)
same,EC50,H4,30.3 µM (active)
O=C(Nc1ccn(Cc2ccccc2)n1)c1ccc2c(c1)OCO2,EC50,[3],15.6 µM (active)
same,EC50,[4],18.5 µM (active)
same,EC50,H4,> 120 µM (not active)
COc1ccc(N2CCN(C(=O)CSc3ncnc4scc(-c5ccc(C)cc5)c34)CC2)cc1,EC50,[1],1.03 µM (active)
same,EC50,[2],> 60 µM (not active)
COc1ccccc1Cn1nnc2c(=O)[nH]c(C3CCN(C(=O)c4ccc(C)cc4)CC3)nc21,AC50,Cytochrome P450 1A2,25.1 µM (inconclusive)
